Results reported in article PMC11714206, “Massively Parallel Screening of Toll/Interleukin‐1 Receptor (TIR)‐Derived Peptides Reveals Multiple Toll‐Like Receptors (TLRs)‐Targeting Immunomodulatory Peptides” (Advanced Science, 2024).

Target: T1, MAL^TIR (Homo sapiens, UniProt P58753)
T1 construct: MAL (residues 79–221); 6xHis; made in house; host or cells: E. coli BL21 (DE3)
Assay: T‐Surf phage library (P8 and P3) selection against MAL^TIR, four rounds, NGS read counts
Format: binding
Settings: for P8_MAL Rank (after) / P8_MAL Rank (before): P8 library; for P3_MAL Rank (after) / P3_MAL Rank (before): P3 library; for Population: 4th round of selection against MAL TIR, share of NGS reads
Outline: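 Library of 190 946 TIR‐derived peptides on P8 or P3 was panned on immobilized TIR domain coated at 5 µg mL^−1, BSA‐blocked, 1 h binding at RT, PBS/0.5% Tween‐20 washes, HCl elution, TG1 amplification. Fourth‐round pools were PCR‐barcoded, sequenced (100 bp paired‐end, Phred ≥30), and peptides ranked by read counts.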

[1] = P8_MAL: rank by count after grouping
[2] = P8_MAL: rank by count before grouping
[3] = selection against MAL TIR, rank by count after grouping
[4] = selection against MAL TIR, rank by count before grouping
[5] = P3_MAL: rank by count after grouping
[6] = P3_MAL: rank by count before grouping
[7] = selection against MAL, rank by count after grouping
[8] = selection against MAL, rank by count before grouping
[9] = P3_MAL pool: P3 T-Surf phage library
[10] = selection against MAL, rank after grouping
[11] = selection against MAL, rank before grouping
[12] = 4R selection against MAL, rank after grouping
[13] = 4R selection against MAL, rank before grouping
[14] = P8_MAL pool: P8 T-Surf phage library

T1 sequence (P58753 79-221): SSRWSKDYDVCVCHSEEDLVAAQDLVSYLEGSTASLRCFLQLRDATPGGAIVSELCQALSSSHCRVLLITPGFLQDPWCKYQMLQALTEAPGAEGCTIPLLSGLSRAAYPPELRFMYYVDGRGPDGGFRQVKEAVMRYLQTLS

KNLFNELVSKNIRTFM
Rank (after) [1]: 116
Rank (before) [2]: 732

SSWWILKELQEILNYQ
P8_MAL Rank (after) [3]: 279
P8_MAL Rank (before) [4]: 2529

SSFRNDLWRLLELSKK
Rank (after) [5]: 419
Rank (before) [6]: 3195

KMQKWKDALYEAAN
P3_MAL Rank (after) [7]: 710
P3_MAL Rank (before) [8]: 3685

AFLFTFLINLTHPSNF
Rank (after) [1]: 450
Rank (before) [2]: 1803

YAFTGHLHRYLVRRGV
Population [9]: 0.00338%

RNNLMDRLYQALDLLR
P8_MAL Rank (after) [10]: 545
P8_MAL Rank (before) [11]: 2298

MSMRPGDRLQRSGI
Rank (after) [5]: 454
Rank (before) [6]: 2967

YFLHFLLFSRPQTQYI
Rank (after) [1]: 137
Rank (before) [2]: 1458

AFLYDFLINLTHQTNF
Rank (after) [1]: 159
Rank (before) [2]: 1814

AFLYTFLVNLTHPTMF
Rank (after) [1]: 468
Rank (before) [2]: 1823

SFLGHLYNALVQADIH
P8_MAL Rank (after) [12]: 664
P8_MAL Rank (before) [13]: 1452

LFLWECLKQLLRSDGR
P8_MAL Rank (after) [10]: 507
P8_MAL Rank (before) [11]: 2144

RNFWRIFFRRWPIKG
P8_MAL Rank (after) [7]: 714
P8_MAL Rank (before) [8]: 2184

KRFEDRMNKVLEWKAA
P8_MAL Rank (after) [7]: 698
P8_MAL Rank (before) [8]: 2674

SEFIQKIILWMNLKNQ
P8_MAL Rank (after) [12]: 581
P8_MAL Rank (before) [13]: 2466

YAFTGHLHRYHLPAPQH
P3_MAL Rank (after) [3]: 277
P3_MAL Rank (before) [4]: 739

SEFILQIILWMNPKIV
Rank (after) [1]: 165
Rank (before) [2]: 2449

ESILNQLRRSSQSFAT
P3_MAL Rank (after) [3]: 260
P3_MAL Rank (before) [4]: 2056

RLLNWKEALHQFHSWV
Population [9]: 0.00338%

LFYERLVSLMLRDTKG
P8_MAL Rank (after) [3]: 274
P8_MAL Rank (before) [4]: 1105

AFFWEQLRPALKERLP
P3_MAL Rank (after) [7]: 746
P3_MAL Rank (before) [8]: 1787

DWFVSKLSQQILQREK
P3_MAL Rank (after) [7]: 729
P3_MAL Rank (before) [8]: 1862

NQWRNALTAAANLIGW
Population [9]: 0.00413%

ESILNQLRRSSESIAK
P3_MAL Rank (after) [3]: 211
P3_MAL Rank (before) [4]: 2053

LKWGDPYFWRKIRYAM
P3_MAL Rank (after) [10]: 530
P3_MAL Rank (before) [11]: 2248

PNLRTNVLNYLIRTKT
Rank (after) [5]: 141
Rank (before) [6]: 2745

RNFVAQLKRALANKAI
P8_MAL Rank (after) [10]: 499
P8_MAL Rank (before) [11]: 2310

CRFRQGLWRLLELSKK
P3_MAL Rank (after) [12]: 611
P3_MAL Rank (before) [13]: 1323

AFLWTQLKSVLGNPTM
P8_MAL Rank (after) [3]: 242
P8_MAL Rank (before) [4]: 1764

RGFLSHRRYHLQAKDH
P3_MAL Rank (after) [10]: 539
P3_MAL Rank (before) [11]: 2396

YNFISHLYAALQRKHVET
P3_MAL Rank (after) [3]: 253
P3_MAL Rank (before) [4]: 754

AFFWDSCVPCWANRR
P8_MAL Rank (after) [3]: 258
P8_MAL Rank (before) [4]: 1666

DTRYTFIAHLSHALNL
P8_MAL Rank (after) [12]: 651
P8_MAL Rank (before) [13]: 2040

WFFQEKVKIFEARKTI
P3_MAL Rank (after) [12]: 669
P3_MAL Rank (before) [13]: 1224

SICREGLWRLLELSKK
P3_MAL Rank (after) [3]: 284
P3_MAL Rank (before) [4]: 3117

VEPTQVRKQSGSVKNA
P3_MAL Rank (after) [3]: 244
P3_MAL Rank (before) [4]: 1663

AFFWAQLKQLLRSDGR
P8_MAL Rank (after) [12]: 629
P8_MAL Rank (before) [13]: 1610

YFLHFLLFSRLDTVYI
Rank (after) [1]: 464
Rank (before) [2]: 1504

WFYERLVCLLLRDSKV
Rank (after) [1]: 458
Rank (before) [2]: 1279

SEFIQKIILCMNQKIV
Rank (after) [1]: 155
Rank (before) [2]: 2458

SSFREGLWRLRGLSKK
P3_MAL Rank (after) [3]: 232
P3_MAL Rank (before) [4]: 3160

SSFREGLWRWRELRKK
P3_MAL Rank (after) [10]: 504
P3_MAL Rank (before) [11]: 3170

RLRKWKEALQQFHSWV
Rank (after) [5]: 139
Rank (before) [6]: 2548

PNLSPKVLNYLMRTKT
Rank (after) [5]: 181
Rank (before) [6]: 2751

AFFWAQLKSELGNPTM
Population [14]: 0.00463%

ASLYTFLINLTHPTNF
Population [14]: 0.0034%

KQWLNAPTAAANLSGW
P3_MAL Rank (after) [12]: 664
P3_MAL Rank (before) [13]: 3635

LVAHEISKKMKIFCDH
P3_MAL Rank (after) [10]: 490
P3_MAL Rank (before) [11]: 2102

SSFREGLWRLLDLSKQ
P3_MAL Rank (after) [7]: 732
P3_MAL Rank (before) [8]: 3144

TFLAICIMRWCRRAF
Rank (after) [1]: 99
Rank (before) [2]: 718

KELLHKWKLALTQTPN
P3_MAL Rank (after) [12]: 621
P3_MAL Rank (before) [13]: 3593

PNLRTKVLNYLILTKT
Rank (after) [5]: 190
Rank (before) [6]: 2747
